Where “and” joins values, the source holds several entries; their conditions need not be identical. Equal entries are not always repeated.
Legend:
[1] = tested on: ApoE^–/– mice on an HFD; test: Flow cytometry of blood, lymph nodes and spleen; assay type: in vivo, mouse; design: Treg / Th17 / F480+CD11b+ Macrophages / iNOS+ Macs / Arg1+ Macs: unit not given here
Protocol: SerBut water was pH adjusted using 10 M NaOH to a final pH of 7.4. […] After 6 weeks, mice were euthanized. The lMLNs, ILNs, spleen, heart, and aorta were harvested and processed for flow cytometry analysis ([67]). […] The remaining liver was fixed with 4% paraformaldehyde and embedded in paraffin for histological analysis.
Flow cytometry was performed using a BD LSRFortessa or a Cytek Aurora full-spectrum cytometer.

[2] = tested on: ApoE^–/– mice on an HFD; test: CD68 immunohistochemistry and Stary plaque severity grading; assay type: in vivo, mouse; design: STARY Score Average: scale not given here
Protocol: For 6 weeks, mice were freely administered water, water containing 150 mM SerBut, or water containing an equimolar amount of NaBut. SerBut water was pH adjusted using 10 M NaOH to a final pH of 7.4. […] In concert, mice were fed an HFD with 42% from fat and 0.2% total cholesterol (Envigo, TD-88137) ad libitum. After 6 weeks, mice were euthanized. The lMLNs, ILNs, spleen, heart, and aorta were harvested and processed for flow cytometry analysis ([67]). The liver was harvested and part was homogenized in tissue protein extraction reagent buffer (Invitrogen, 78510) supplemented with protease inhibitor mini tablets (Thermo Fisher Scientific, PIA32955) for Western blotting and qPCR. The remaining liver was fixed with 4% paraformaldehyde and embedded in paraffin for histological analysis.
Frozen aortic root sections were fixed in Zamboni fixative for 10 minutes. After TBS wash, slides were loaded on Leica Bond RX automated stainer. Anti–mouse CD68 antibody (BioLegend, catalog 137001, clone FA-11; 1:4000) was applied to tissue sections for 60 minutes of incubation at room temperature. Following TBS wash, tissue sections were incubated with rabbit anti-rat IgG (Thermo Fisher Scientific, 31219) 30 minutes. The antigen-antibody binding was detected using Polymer-HRP (Leica Biosystems, Bond Polymer Refine Detection kit, DS9800). The slides were coverglassed by autocoverslipper (Tissue-Tek Glas g2). Stary plaque severity grading was done as previously described ([42]). Briefly, each individual mouse was scored if there were at least 2 sections showing all 3 leaflets of the aortic valve that could reasonably be scored. Each leaflet was scored individually per aortic valve and subsequently averaged per section. All sections were averaged per mouse for a final score. Sections were graded blinded. Table 1 explains the scoring scale. Quantitative analysis of plaque features was performed using a classifier in QuPath (v.05.0).

[3] = tested on: LDL-R; test: Western blot of LDL-R in liver; assay type: in vivo, mouse
From the text: SerBut water was pH adjusted using 10 M NaOH to a final pH of 7.4. […] After 6 weeks, mice were euthanized. […] The liver was harvested and part was homogenized in tissue protein extraction reagent buffer (Invitrogen, 78510) supplemented with protease inhibitor mini tablets (Thermo Fisher Scientific, PIA32955) for Western blotting and qPCR.

[4] = LC-MS/MS of free butyrate in solution of fresh and aged SerBut
Protocol: To investigate stability, we repeated the experiment with SerBut in FBS-supplemented complete media stored for 1 month at 37°C (Figure 1B).
(B) LC-MS/MS analysis of free butyrate in solution of aged SerBut (incubated at 37°C in FBS-supplemented media for 1 month) and freshly dissolved SerBut and NaBut. (C) NF-κB activity of RAW Blue reporter cells upon treatment with the indicated concentrations of SerBut or NaBut for 24 hours followed by stimulation with 200 ng/mL LPS for 6 hours. (D–J) RAW 264.7 cells treated for 24 hours with the indicated concentrations of SerBut or NaBut followed by stimulation with 200 ng/mL LPS for 6 hours. (D–E) Mean fluorescence intensity (MFI) of iNOS^+ or CD80^+ RAW 264.7 cells analyzed by flow cytometry. (F–J) Cytokine concentrations in the cell culture supernatant of RAW 264.7 cells. “x” indicates untreated group. In A, n = 3 per group representing technical replicates. In B, n = 3 freshly prepared samples per 2 distinct experiments pooled for aged SerBut and NaBut groups, while fresh the SerBut group represents a single experiment. One sample in the aged SerBut group and 2 samples in the NaBut group were lost due to filtering malfunctions or LC-MS/MS autosampling malfunctions. In C, n = 6 technical replicates. Data represent mean ± SEM. […] In A, 2-way ANOVA was performed.
Samples were prepared and derivatized as described previously ([28]). Stock solutions were prepared in water/acetonitrile (ACN) (1:1 v/v): 3-nitrophenylhydrazine (NPH), and 1-ethyl-3-(3-dimethylaminopropyl)carbodiimide (EDC) (in 1% pyridine). The internal standard, 4-methylvaleric acid, was added. Samples were mixed with NPH and EDC stocks at a 1:1:1 volume ratio. The mixture was heated in a heating block at 60°C for 30 minutes. Samples were filtered through 0.22 μm filters and stored at 4°C before analysis.
Both derivatized butyrate-NPH and 4-methylvaleric-NPH were detected in negative mode. Column: Thermo Fisher Scientific C18 4.6 × 50 mm, 1.8 μm particle size, at room temperature. Mobile phase A: water with 0.1% v/v formic acid. Mobile phase B: ACN with 0.1% v/v formic acid. Injection volume: 5.0 μL. Flow rate: 0.5 mL/min. […] The MS conditions were optimized using pure butyrate-NPH or 4-methylvaleric-NPH at 1 mM. […] The ratio between MRM of butyrate and 4-methylvaleric acid was used to quantify butyrate concentration.

[5] = Inguinal Lymph Node Flow, individual mice
[6] = Mesenteric Lymph Node Flow, individual mice

relative concentration of free butyrate on storage ([4]; FBS-supplemented complete media, 1 month at 37°C): did not change
share of sample that was free butyrate ([4]; at the time of measurement): approximately 10%
Butyrate Release by LCMS-MS (free butyrate) ([4]; freshly dissolved): 0.483 and 0.4832 and 0.4596
SMILES: CCCC(=O)OC[C@H](N)C(=O)O [SerBut, O-butyryl-L-serine]
frequency of circulating Ly6G^+CD11b^+ neutrophils ([1]; 6 weeks, compared with both NaBut- and water-treated controls): significantly reduced
Arg1+ Macs [1, 5]: 3.53 and 2.72 and 2.64 and 3.19 and 3.9 and 5.62 and 3.61 and 5.94 and 4.82 and 4.83 and 3.4 and 2.08 and 3.78 and 5.04
F480+CD11b+ Macrophages [1, 5]: 0.56 and 0.54 and 0.36 and 0.83 and 0.61 and 1.4 and 0.33 and 0.64 and 0.46 and 0.86 and 0.43 and 0.29
Th17 [1, 5]: 7.49 and 5.92 and 1.67 and 2.37 and 3.33 and 2.23 and 8.03 and 16.8 and 2.7
Th17/Treg [1, 5]: 0.5095 and 0.3947 and 0.09489 and 0.1274 and 0.2068 and 0.1161 and 0.4294 and 1.037 and 0.1588
Treg [1, 5]: 14.7 and 15 and 17.6 and 18.6 and 16.1 and 19.2 and 18.7 and 16.2 and 17
iNOS+ Macs [1, 5]: 5.43 and 3.21 and 3.87 and 2.26 and 2.24 and 2.49 and 6.09 and 2.15 and 4.59 and 2.91 and 7.23 and 2.89 and 7.07 and 5.7
Th17/Treg cell ratio ([1]; MLNs and spleen): reduced the Th17/Treg cell ratio
iNOS^+ of CD11b^+F480^+ macrophages ([1]; MLNs, not ILNs, compared with controls, but not NaBut-treated mice): significantly decreased
regulatory T cells ([1]; MLNs, not skin-draining lymph nodes or spleen): expanded
Arg1+ Macs [1, 6]: 3.56 and 1.85 and 2.39 and 1.1 and 1.07 and 1.12 and 0.97 and 1.19 and 1.91 and 0.93 and 1.08 and 1.16 and 0.95
F480+CD11b+ Macrophages [1, 6]: 5.85 and 7.28 and 6.98 and 8.63 and 11.2 and 7.11 and 5.47 and 7.35 and 5.84 and 3.45 and 4.72 and 5.77 and 7.09
Th17 [1, 6]: 7.78 and 13.7 and 14.7 and 8.43 and 9.66 and 19.2 and 12
Th17/Treg [1, 6]: 0.5329 and 0.6372 and 0.9423 and 0.493 and 0.6114 and 1.091 and 0.7843
Treg [1, 6]: 14.6 and 21.5 and 15.6 and 17.1 and 15.8 and 17.6 and 15.3
iNOS+ Macs [1, 6]: 0.64 and 1 and 0.46 and 0.71 and 0.58 and 0.74 and 0.6 and 0.68 and 1.54 and 0.88 and 0.65 and 0.69
Th17 ([1]; Spleen Flow, individual mice): 0.83 and 1.07 and 1.3 and 0.97 and 1.12 and 1.08 and 1 and 1.34
Th17/Treg ([1]; Spleen Flow, individual mice): 0.115 and 0.1219 and 0.1671 and 0.1127 and 0.16 and 0.145 and 0.1264 and 0.1603
Treg ([1]; Spleen Flow, individual mice): 7.22 and 8.78 and 7.78 and 8.61 and 7 and 7.45 and 7.91 and 8.36
Blood Neutrophils: CD11b+Ly6G+ %CD45 ([1]; blood, individual mice): 12.2 %CD45 and 10.2 %CD45 and 11.9 %CD45 and 16 %CD45 and 15.3 %CD45 and 6.9 %CD45 and 6.35 %CD45 and 13.7 %CD45 and 8 %CD45 and 10.6 %CD45 and 17.9 %CD45 and 2.21 %CD45 and 2.25 %CD45 and 7.63 %CD45
plaque severity score, CD68^+ stained area and necrotic core area ([2]; 6 weeks, compared with water-treated mice): significant reduction
STARY Score Average ([2]; average per mouse, experiments 1 and 2, grades per the 1st table): 4.31 and 4.429 and 3.833 and 3.944 and 4.333 and 4 and 3.75 and 3.583
CD68+ IHC Quantification CD68 % Lesion ([2]; individual mice): 69.8799 % Lesion and 66.2246 % Lesion and 57.396 % Lesion and 61.0623 % Lesion and 37.3547 % Lesion and 58.9062 % Lesion and 54.5852 % Lesion
CD68+ IHC Quantification CD68+ (um2) ([2]; individual mice): 83533.6 um2 and 151477 um2 and 57839.2 um2 and 114375 um2 and 26376.1 um2 and 132530 um2 and 122451 um2
CD68+ IHC Quantification Intima % Lesion ([2]; individual mice): 20.6972 % Lesion and 12.9871 % Lesion and 31.9636 % Lesion and 8.967 % Lesion and 42.8946 % Lesion and 25.2201 % Lesion and 37.0252 % Lesion
CD68+ IHC Quantification Intima (um2) ([2]; individual mice): 25307.3 um2 and 13303.3 um2 and 35976.1 um2 and 33683.8 um2 and 30916.8 um2 and 58237.6 um2 and 82003.5 um2
CD68+ IHC Quantification Necrotic Core % Lesion ([2]; individual mice): 8.949 % Lesion and 20.1213 % Lesion and 8.471 % Lesion and 28.3702 % Lesion and 18.86 % Lesion and 14.738 % Lesion and 7.7245 % Lesion
CD68+ IHC Quantification Necrotic Core (um2) ([2]; individual mice): 10697.9 um2 and 47552.4 um2 and 8399.84 um2 and 53169.3 um2 and 13317 um2 and 32727 um2 and 17678.5 um2
LDL-R protein levels in liver ([3]; 6 weeks): significantly suppressed
LDL-R Relative Expression ([3]; western Blot quantifiation, individual mice): 1.543 and 1.468 and 1.422 and 1.743 and 2.24 and 1.846 and 1.092 and 1.104 and 0.9748
Butyrate Release by LCMS-MS (free butyrate) ([4]; aged: 37°C in FBS-supplemented media for 1 month, listed as Aged SerBut): 0.457 and 0.4771 and 0.4543 and 0.3155 and 0.3079
